Measured values reported in ChEMBL document CHEMBL3045446, “In vitro antimicrobial and antimycobacterial activity of some chalcones and their derivatives” (2013).
≈ marks a conversion by molar mass, not a printed value.

Experiments:
Assay type in all cases: functional
[1] = system: Aspergillus niger; assay: Antimicrobial activity against Aspergillus niger MTCC 282 assessed as growth inhibition after 48 hr by agar streak dilution method; conditions: MTCC 282, 48 h
[2] = system: Shigella flexneri; assay: Antimicrobial activity against Shigella flexneri MTCC1457 assessed as diameter of growth inhibition zone after 24 hr
[3] = system: Mycobacterium tuberculosis; assay: Antituberculosis activity against Mycobacterium tuberculosis H37Rv assessed as growth inhibition after 12 to 28 days by L-J MIC method; conditions: for MIC: Mycobacterium tuberculosis, H37Rv
[4] = system: Salmonella typhi; assay: Antimicrobial activity against Salmonella enterica subsp. enterica serovar Typhi MTCC 733 assessed as growth inhibition after 24 hr by agar streak dilution method; conditions: MTCC 733, 24 h
[5] = system: Aspergillus fumigatus; assay: Antimicrobial activity against Aspergillus fumigatus MTCC 343 assessed as growth inhibition after 48 hr by agar streak dilution method; conditions: MTCC 343, 48 h
[6] = system: Escherichia coli; assay: Antimicrobial activity against Escherichia coli MTCC 739 assessed as diameter of growth inhibition zone after 24 hr
[7] = system: Klebsiella pneumoniae; assay: Antimicrobial activity against Klebsiella pneumoniae MTCC 109 assessed as growth inhibition after 24 hr by agar streak dilution method; conditions: MTCC 109, 24 h
[8] = system: Escherichia coli; assay: Antimicrobial activity against Escherichia coli MTCC 739 assessed as growth inhibition after 24 hr by agar streak dilution method; conditions: MTCC 739, 24 h
[9] = system: Pseudomonas aeruginosa; assay: Antimicrobial activity against Pseudomonas aeruginosa MTCC 741 assessed as diameter of growth inhibition zone after 24 hr
[10] = system: Bacillus cereus; assay: Antimicrobial activity against Bacillus cereus MTCC 430 assessed as diameter of growth inhibition zone after 24 hr
[11] = system: Aspergillus fumigatus; assay: Antimicrobial activity against Aspergillus fumigatus MTCC 343 assessed as diameter of growth inhibition zone after 48 hr
[12] = system: Staphylococcus aureus; assay: Antimicrobial activity against Staphylococcus aureus MTCC 96 assessed as growth inhibition after 24 hr by agar streak dilution method; conditions: MTCC 96, 24 h
[13] = system: Staphylococcus aureus; assay: Antimicrobial activity against Staphylococcus aureus MTCC 96 assessed as diameter of growth inhibition zone after 24 hr
[14] = system: Candida albicans; assay: Antimicrobial activity against Candida albicans MTCC 183 assessed as growth inhibition after 48 hr by agar streak dilution method; conditions: MTCC 183, 48 h
[15] = system: Aspergillus niger; assay: Antimicrobial activity against Aspergillus niger MTCC 282 assessed as diameter of growth inhibition zone after 48 hr
[16] = system: Proteus vulgaris; assay: Antimicrobial activity against Proteus vulgaris MTCC 1771 assessed as growth inhibition after 24 hr by agar streak dilution method; conditions: MTCC 1771, 24 h
[17] = system: Pseudomonas aeruginosa; assay: Antimicrobial activity against Pseudomonas aeruginosa MTCC 741 assessed as growth inhibition after 24 hr by agar streak dilution method; conditions: MTCC 741, 24 h
[18] = system: Aspergillus clavatus; assay: Antimicrobial activity against Aspergillus clavatus MTCC 1323 assessed as growth inhibition after 48 hr by agar streak dilution method; conditions: MTCC 1323, 48 h
[19] = system: Klebsiella pneumoniae; assay: Antimicrobial activity against Klebsiella pneumoniae MTCC 109 assessed as diameter of growth inhibition zone after 24 hr
[20] = system: Salmonella typhi; assay: Antimicrobial activity against Salmonella enterica subsp. enterica serovar Typhi MTCC 733 assessed as diameter of growth inhibition zone after 24 hr
[21] = system: Proteus vulgaris; assay: Antimicrobial activity against Proteus vulgaris MTCC 1771 assessed as diameter of growth inhibition zone after 24 hr
[22] = system: Shigella flexneri; assay: Antimicrobial activity against Shigella flexneri MTCC1457 assessed as growth inhibition after 24 hr by agar streak dilution method; conditions: MTCC1457, 24 h
[23] = system: Aspergillus clavatus; assay: Antimicrobial activity against Aspergillus clavatus MTCC 1323 assessed as diameter of growth inhibition zone after 48 hr
[24] = system: Candida albicans; assay: Antimicrobial activity against Candida albicans MTCC 183 assessed as diameter of growth inhibition zone after 48 hr
[25] = system: Bacillus cereus; assay: Antimicrobial activity against Bacillus cereus MTCC 430 assessed as growth inhibition after 24 hr by agar streak dilution method; conditions: MTCC 430, 24 h

SMILES	MIC [1] [µg/mL]	diameter of the inhibition zone (DIZ) [2] [mm]	growth inhibition (GI) [3] [%]	MIC [3] [µg/mL]	MIC [4] [µg/mL]	MIC [5] [µg/mL]	diameter of the inhibition zone (DIZ) [6] [mm]	MIC [7] [µg/mL]	MIC [8] [µg/mL]	diameter of the inhibition zone (DIZ) [9] [mm]	diameter of the inhibition zone (DIZ) [10] [mm]	diameter of the inhibition zone (DIZ) [11] [mm]	MIC [12] [µg/mL]	diameter of the inhibition zone (DIZ) [13] [mm]	MIC [14] [µg/mL]	diameter of the inhibition zone (DIZ) [15] [mm]	MIC [16] [µg/mL]	MIC [17] [µg/mL]	MIC [18] [µg/mL]	diameter of the inhibition zone (DIZ) [19] [mm]	further results
Nc1nc(-c2ccc(Nc3cc(=O)oc4ccccc34)cc2)cc(-c2ccc(Cl)cc2Cl)n1	25 (≈ 52.6 µM)	21	98	200 (≈ 421 µM)	25 (≈ 52.6 µM)	12.5 (≈ 26.3 µM)	19	25 (≈ 52.6 µM)	50 (≈ 105 µM)	22	22	22	12.5 (≈ 26.3 µM)	24	25 (≈ 52.6 µM)	20	6.25 (≈ 13.1 µM)	25 (≈ 52.6 µM)	50 (≈ 105 µM)	21	diameter of the inhibition zone (DIZ) [20]: 20 mm; diameter of the inhibition zone (DIZ) [21]: 25 mm; MIC [22]: 25 µg/mL (≈ 52.6 µM); diameter of the inhibition zone (DIZ) [23]: 19 mm; diameter of the inhibition zone (DIZ) [24]: 21 mm; MIC [25]: 12.5 µg/mL (≈ 26.3 µM)
Nc1nc(-c2ccc(Nc3cc(=O)oc4ccccc34)cc2)cc(-c2ccccc2Br)n1	50 (≈ 103 µM)	19	98	100 (≈ 206 µM)	50 (≈ 103 µM)	50 (≈ 103 µM)	16	50 (≈ 103 µM)	100 (≈ 206 µM)	15	16	19	100 (≈ 206 µM)	17	25 (≈ 51.5 µM)	20	100 (≈ 206 µM)	100 (≈ 206 µM)	50 (≈ 103 µM)	18	diameter of the inhibition zone (DIZ) [20]: 20 mm; diameter of the inhibition zone (DIZ) [21]: 17 mm; MIC [22]: 50 µg/mL (≈ 103 µM); diameter of the inhibition zone (DIZ) [23]: 17 mm; diameter of the inhibition zone (DIZ) [24]: 23 mm; MIC [25]: 100 µg/mL (≈ 206 µM)
COc1ccc(C2CC(c3ccc(Nc4cc(=O)oc5ccccc45)cc3)=NN2C(C)=O)cc1 (stereo unspecified)	25 (≈ 55.1 µM)	16	99	100 (≈ 221 µM)	100 (≈ 221 µM)	50 (≈ 110 µM)	19	100 (≈ 221 µM)	50 (≈ 110 µM)	18	15	18	100 (≈ 221 µM)	16	50 (≈ 110 µM)	21	50 (≈ 110 µM)	50 (≈ 110 µM)	25 (≈ 55.1 µM)	17	diameter of the inhibition zone (DIZ) [20]: 17 mm; diameter of the inhibition zone (DIZ) [21]: 20 mm; MIC [22]: 100 µg/mL (≈ 221 µM); diameter of the inhibition zone (DIZ) [23]: 20 mm; diameter of the inhibition zone (DIZ) [24]: 19 mm; MIC [25]: 100 µg/mL (≈ 221 µM)
Cc1ccc(/C=C/C(=O)c2ccc(Nc3cc(=O)oc4ccccc34)cc2)cc1	100 (≈ 262 µM)	18	96	500 (≈ 1310 µM)	100 (≈ 262 µM)	100 (≈ 262 µM)	<10	100 (≈ 262 µM)	100 (≈ 262 µM)	15	15	13	100 (≈ 262 µM)	14	100 (≈ 262 µM)	14	50 (≈ 131 µM)	100 (≈ 262 µM)	100 (≈ 262 µM)	10	diameter of the inhibition zone (DIZ) [20]: 13 mm; diameter of the inhibition zone (DIZ) [21]: 19 mm; MIC [22]: 50 µg/mL (≈ 131 µM); diameter of the inhibition zone (DIZ) [23]: <10 mm; diameter of the inhibition zone (DIZ) [24]: 11 mm; MIC [25]: 100 µg/mL (≈ 262 µM)
CC(=O)N1N=C(c2ccc(Nc3cc(=O)oc4ccccc34)cc2)CC1c1ccc(F)cc1 (stereo unspecified)	25 (≈ 56.6 µM)	20	98	100 (≈ 227 µM)	50 (≈ 113 µM)	25 (≈ 56.6 µM)	20	12.5 (≈ 28.3 µM)	50 (≈ 113 µM)	17	22	22	12.5 (≈ 28.3 µM)	23	50 (≈ 113 µM)	20	25 (≈ 56.6 µM)	50 (≈ 113 µM)	50 (≈ 113 µM)	23	diameter of the inhibition zone (DIZ) [20]: 18 mm; diameter of the inhibition zone (DIZ) [21]: 21 mm; MIC [22]: 25 µg/mL (≈ 56.6 µM); diameter of the inhibition zone (DIZ) [23]: 20 mm; diameter of the inhibition zone (DIZ) [24]: 16 mm; MIC [25]: 12.5 µg/mL (≈ 28.3 µM)
N#Cc1c(-c2ccc(F)cc2)cc(-c2ccc(Nc3cc(=O)oc4ccccc34)cc2)nc1N	12.5 (≈ 27.9 µM)	24	97	50 (≈ 111 µM)	6.25 (≈ 13.9 µM)	3.12 (≈ 6.96 µM)	27	3.12 (≈ 6.96 µM)	3.12 (≈ 6.96 µM)	29	28	28	6.25 (≈ 13.9 µM)	25	12.5 (≈ 27.9 µM)	23	3.12 (≈ 6.96 µM)	3.12 (≈ 6.96 µM)	6.25 (≈ 13.9 µM)	28	diameter of the inhibition zone (DIZ) [20]: 26 mm; diameter of the inhibition zone (DIZ) [21]: 29 mm; MIC [22]: 12.5 µg/mL (≈ 27.9 µM); diameter of the inhibition zone (DIZ) [23]: 28 mm; diameter of the inhibition zone (DIZ) [24]: 22 mm; MIC [25]: 3.12 µg/mL (≈ 6.96 µM)
